The subject of assay [1] is HERK1, THE1 and FER. Put plainly: quantitative RT-PCR of HERK1, THE1 and FER expression after hormone treatment. The format is in vivo, Arabidopsis thaliana. From the text: (1A) The expression of HERK1, THE1 and FER is induced by BL treatment in 10-day-old seedlings and 4-week-old adult plants. Triplicate biological samples were used to prepare RNA for quantitative RT PCR. The relative expression levels compared to UBQ5 gene were used to determine the BL-induction levels of each gene. The averages and standard deviations from three biological repeats are shown. […] Ten-day-old seedlings were used to prepare RNA for qRT-PCR as described in (1A). (1C-E) HERK1 cellular localization: A HERK1-GFP (1C) or BES1-D-GFP (1D) construct was introduced into protoplasts or transgenic plants (1E). HERK1 is mostly localized at the plasma membrane (1C and 1E), while BES1-D is primarily in the nucleus (1D). […] Recombinant proteins fused with MBP representing the wild-type HERK1 kinase domain (WT), and a mutant version with disrupted kinase activity (mutant), were used in kinase assay. […] The bars in 1G/1H and 1I represent 2.5 and 10 mm, respectively.
(8A) Regulation of HERK1, THE1 and FER as well as other CrRLK family members by BL. The data are derived from microarray experiments with light-growing seedlings treated with 10 nM BL for 3 hr, which is published in a public website (http://bbc.botany.utoronto.ca/efp/cgi-bin/efpWeb.cgi). […] The averages and standard deviations for 2 biological replicates are shown. (8C) the herk1 the1 double mutant has a normal GA response in a hypocotyl elongation assay. […]
For reverse transcription-polymerase chain reaction (RT-PCR), 2 μg total RNA was reverse-transcribed to cDNA by SuperScript II Reverse Transcriptase (Invitrogen). For real-time quantitative RT-PCR, the primers were designed so that the products are between 200-300 bps. The SYBR Green PCR Master mix (Applied Biosystems) was used and the PCR reactions were run on the Mx4000® multiplex quantitative PCR system (Stratagene). Two or three biological replicates were each analyzed with 2-3 RT-PCR reactions. For semi-quantitative RT-PCR, the same amount of cDNA was used for each PCR reaction. […]

The test system of assay [2] is CrRLK1L family RLKs. Nature of the assay: microarray of CrRLK1L family expression, 2-week-old seedlings with or without BL. The format is in vivo, Arabidopsis thaliana. As to conditions: wild-type (En-2), BL 1 uM, 3 hr. As to the method: (9A) The expression of CrRLK family RLKs by BL in WT and bes1-D mutant. Microarrays were performed with 2-week-old seedlings with or without BL treatment (1 uM, 3 hr). At5g38990 and At5g39000 have the same probe set in Affymetrix ATH1 Genome arrays, so only the former is shown. (9B) BR responses of the indicated mutants at the seedling stage, performed as described. (9C) Plant phenotypes of 24-day-old adult plants. The bar represents 10 mm. (9D) Petiole lengths of the sixth leaf in WT and mutants. Averages and standard deviations from 10 plants are shown. (E) A model for HERK signaling and its crosstalk with BR pathway.
BRs function to regulate cell elongation and many other processes^10-13. BRs signal through a membrane-localized receptor kinase BRI1 and other signaling components^10, 14-16 to control BES1 and BZR1 family transcription factors, which mediate the expression of many genes for BR responses^17-20. […] To further confirm that these RLK genes are modulated by BRs and/or BES1, we performed a microarray experiment with bes-D mutant^19, a constitutive BR response mutant due to highly accumulated BES1 protein, with En-2 as wild-type control (L.L. & Y.Y. in preparation). The expression of all CrRLK1L members is examined (FIG. 5A).

In assay [3] the test system is CrRLK family members. As to conditions: 10 nM BL for 3 hr; cited from earlier work.
The test system of assay [4] is herk1 the1 double mutant 24-day-old adult plants. Put plainly: Affymetrix microarray gene expression, herk1 the1 double mutant adult plants with BL. Type of assay: in vivo, Arabidopsis thaliana. The procedure:
(§1) Microarray experiments were performed with 24-day-old adult plants. The whole plants were sprayed with either water or […] and incubate for 2.5 hours. The plants were pooled into three groups as triplicates (8 plants per group). Total RNA was prepared with RNeasy Plant Mini Kit (QIAGEN) and used to make probes for microarray experiments with Affymetrix Arabidopsis Genomic arrays. The probe labeling, hybridization, and scanning were performed according to manufacture's instructions. Microarray data was normalized by the MAS 5.0 method implemented in the R package affy and the linear model was applied to two sample comparison (samples with and without BL treatment or WT compared to mutant) using the limma package (39, 40). Genes with an adjusted p-value <=0.01 were considered to be differentially expressed. The BR-induced genes, HERK1/THE regulated genes were used for clustering analysis with the GENESPRING program (Silicon Genetics) using Pearson Correlation.

Assay [5] concerns wild-type 24-day-old adult plants. Nature of the assay: Affymetrix microarray gene expression, wild-type adult plants with BL. The format is in vivo, Arabidopsis thaliana. As to the method: as §1
[6] abbreviates: adult plants, microarray, adjusted p-value <=0.01.

With `O=C(O)Cc1c[nH]c2ccccc12` [IAA], in assay [1] (10-day-old seedlings, qRT-PCR), the “regulation of expression of HERK1” value is recorded as “appears to induce”.

Consider `C=C1C[C@]23C[C@@]1(O)CC[C@H]2[C@@]12C=C[C@H](O)[C@@](C)(C(=O)O1)[C@H]2[C@@H]3C(=O)O` [GA3], for which, in assay [1] (10-day-old seedlings, qRT-PCR), the “regulation of expression of HERK1, THE1, and FER” value was “up-regulates”.

For the compound `CC(C)[C@H](C)[C@@H](O)[C@H](O)[C@@H](C)[C@H]1CC[C@H]2[C@@H]3COC(=O)[C@H]4C[C@H](O)[C@H](O)C[C@]4(C)[C@H]3CC[C@]12C` [BL, brassinolide], in assay [2], the “regulation of FER, THE1, HERK1, At1g30570 (HERK2), At2g39360 and At5g24010” value was “slightly upregulated”. Also, the “induction of HERK1, THE1 and FER among CrRLK family members” value in assay [3] is “most highly induced”. The “regulation of At2g39360, At5g24010, At1g30570, At5g38990/At5g39000 and At5g39020” value in assay [3] is given as “slightly induced”. The “up-regulation of HERK1, THE1 and FER expression” value in assay [1] (seedlings and/or adult plants, relative to UBQ5, p<0.01) is on record as 20-80%. For the same compound, the “gene expression level At3g45960 (EXPL3)” value in assay [4] (herk1 the1-BL 18) amounted to 44; in assay [5] (WT + BL, WT-BL 24), 92. The “gene expression level At1g20190 (EXP11)” value in assay [4] (herk1 the1-BL 35) stood at 225; in assay [5] (WT + BL, WT-BL 141), 395. The “gene expression level AT1G10550 (XTH33)” value in assay [4] (herk1 the1-BL 48) is given as 191; in assay [5] (WT + BL, WT-BL 47) it was 223. The “gene expression level At1g65310 (XTH17)” value in assay [4] (herk1 the1-BL 95) is given as 302; in assay [5] (WT + BL, WT-BL 137), 214. The “gene expression level At4g38400 (EXPL2)” value in assay [4] (herk1 the1-BL 151) was found to be 381; in assay [5] (WT + BL, WT-BL 188), 433. Further, the “gene expression level At2g20750 (EXPB1)” value in assay [4] (herk1 the1-BL 161) is reported as 157; in assay [5] (WT + BL, WT-BL 295), 198. Besides, the “gene expression level At4g30290 (XTH19)” value in assay [4] (herk1 the1-BL 162) is given as 259; in assay [5] (WT + BL, WT-BL 153), 297. In addition, the “gene expression level At3g07010 (PLL20)” value in assay [4] (herk1 the1-BL 325) came out at 829; in assay [5] (WT + BL, WT-BL 427) it was 939. Besides, the “gene expression level At2g37640 (EXP3)” value is recorded as 594 in assay [4] (herk1 the1-BL 340) and 641 in assay [5] (WT + BL, WT-BL 384). In addition, the “gene expression level AT1G11545 (XTH8)” value in assay [4] (herk1 the1-BL 357) was 1249; in assay [5] (WT + BL, WT-BL 453) it was 1178. In addition, the “gene expression level At2g40610 (EXP8)” value in assay [4] (herk1 the1-BL 437) worked out at 1586; in assay [5] (WT + BL, WT-BL 1006) it was 2407. The “gene expression level At3g45970 (EXPL1)” value worked out at 970 in assay [4] (herk1 the1-BL 529) and 1339 in assay [5] (WT + BL, WT-BL 581). Also, the “gene expression level At3g23730 (XTH16)” value was determined as 1069 in assay [4] (herk1 the1-BL 636) and 819 in assay [5] (WT + BL, WT-BL 559). For the same compound, the “gene expression level At3g29030 (EXP5)” value was found to be 1848 in assay [4] (herk1 the1-BL 1523) and 2112 in assay [5] (WT + BL, WT-BL 2323). Moreover, the “gene expression level At4g37800 (XTH7)” value in assay [4] (herk1 the1-BL 1831) was found to be 2864; in assay [5] (WT + BL, WT-BL 2899) it was 3419. Besides, the “gene expression level At1g04680 (PLL26)” value in assay [4] (herk1 the1-BL 1982) is 2932; in assay [5] (WT + BL, WT-BL 2466) it was 3402. The “gene expression level At2g28950 (EXP6)” value in assay [4] (herk1 the1-BL 2074) is reported as 1919; in assay [5] (WT + BL, WT-BL 3287), 2524. For the same compound, the “gene expression level AT5G57560 (XTH22)” value in assay [4] (herk1 the1-BL 2728) is given as 7941; in assay [5] (WT + BL, WT-BL 2277), 7344. Moreover, the “gene expression level At1g69530 (EXP1)” value in assay [4] (herk1 the1-BL 3595) is 6462; in assay [5] (WT + BL, WT-BL 6798), 8465. Besides, the “gene expression level At2g06850 (XTH4)” value in assay [4] (herk1 the1-BL 5096) is on record as 11194; in assay [5] (WT + BL, WT-BL 7247), 13455. Also, the “number of genes whose expression BL induces” value in assay [5] (setting [6]) came to 650. In assay [5] (setting [6]), the “number of genes whose expression BL represses” value is listed as 520.

Values taken from US9512440B2, “Modulation of receptor-like kinases for promotion of plant growth” (IOWA STATE UNIVERSITY RESEARCH FOUNDATION, INC., priority 2009, dated 2016).
